Data as given in publication PMC6891286, “Towards the Development of an In vivo Chemical Probe for Cyclin G Associated Kinase (GAK)” (Molecules, 2019).

Experiments:
Experiment in all cases: KINOMEscan
Format in all cases: binding
Details in all cases: 35 at 1 µM; read-out: % inhibition
EGFR(S752-I759del) = biological target: T1, EGFR(S752-I759del) (Homo sapiens, UniProt P00533, DEL752-759)
T1 construct: purchased Eurofins DiscoverX (KINOMEscan)
Description: (§1) KinomeScan Assay on 35 was performed as previously described at EuroFins DiscoverX (Fremont, CA, USA).

MEK3 = biological target: T2, MEK3 (Homo sapiens, UniProt P46734)
T2 construct: purchased Eurofins DiscoverX (KINOMEscan)
T2 sequence (P46734 whole entry): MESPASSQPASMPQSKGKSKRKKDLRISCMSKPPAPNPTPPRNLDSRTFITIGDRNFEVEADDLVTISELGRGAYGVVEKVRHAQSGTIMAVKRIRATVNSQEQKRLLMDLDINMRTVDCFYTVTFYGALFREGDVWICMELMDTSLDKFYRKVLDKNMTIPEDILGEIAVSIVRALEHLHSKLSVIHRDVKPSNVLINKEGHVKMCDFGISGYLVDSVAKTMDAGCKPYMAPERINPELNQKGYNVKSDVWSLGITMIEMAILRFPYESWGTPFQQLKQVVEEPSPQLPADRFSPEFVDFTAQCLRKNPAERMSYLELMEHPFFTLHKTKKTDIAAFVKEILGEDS
Description: as §1

IRAK4 = biological target: T3, IRAK4 (Homo sapiens, UniProt Q9NWZ3)
T3 construct: purchased Eurofins DiscoverX (KINOMEscan)
Description: as §1

WNK1 = biological target: T4, WNK1 (Homo sapiens, UniProt Q9H4A3)
T4 construct: purchased EuroFins DiscoverX (Fremont, CA, USA)
Description: as §1

[1] = biological target: T5, RSK4(Kin.Dom.1-N-terminal) (Homo sapiens, UniProt Q9UK32)
T5 construct: RSK4(Kin.Dom.1-N-terminal); purchased Eurofins DiscoverX (KINOMEscan)
Description: as §1

PIK3CB = biological target: T6, PIK3CB (Homo sapiens, UniProt P42338)
T6 construct: purchased Eurofins DiscoverX (KINOMEscan)
Description: as §1

STK33 = biological target: T7, STK33 (Homo sapiens, UniProt Q9BYT3)
T7 construct: purchased Eurofins DiscoverX (KINOMEscan)
Description: as §1

BRSK2 = biological target: T8, BRSK2 (Homo sapiens, UniProt Q8IWQ3)
T8 construct: purchased Eurofins DiscoverX (KINOMEscan)
Description: as §1

[2] = biological target: T9, RSK3(Kin.Dom.2-C-terminal) (Homo sapiens, UniProt Q15349)
T9 construct: RSK3(Kin.Dom.2-C-terminal); purchased Eurofins DiscoverX (KINOMEscan)
Description: as §1

FGFR4 = biological target: T10, FGFR4 (Homo sapiens, UniProt P22455)
T10 construct: purchased Eurofins DiscoverX (KINOMEscan)
Description: as §1

ACVR2A = biological target: T11, ACVR2A (Homo sapiens, UniProt P27037)
T11 construct: purchased Eurofins DiscoverX (KINOMEscan)
Description: as §1

SRPK1 = biological target: T12, SRPK1 (Homo sapiens, UniProt Q96SB4)
T12 construct: purchased Eurofins DiscoverX (KINOMEscan)
T12 sequence (Q96SB4 whole entry): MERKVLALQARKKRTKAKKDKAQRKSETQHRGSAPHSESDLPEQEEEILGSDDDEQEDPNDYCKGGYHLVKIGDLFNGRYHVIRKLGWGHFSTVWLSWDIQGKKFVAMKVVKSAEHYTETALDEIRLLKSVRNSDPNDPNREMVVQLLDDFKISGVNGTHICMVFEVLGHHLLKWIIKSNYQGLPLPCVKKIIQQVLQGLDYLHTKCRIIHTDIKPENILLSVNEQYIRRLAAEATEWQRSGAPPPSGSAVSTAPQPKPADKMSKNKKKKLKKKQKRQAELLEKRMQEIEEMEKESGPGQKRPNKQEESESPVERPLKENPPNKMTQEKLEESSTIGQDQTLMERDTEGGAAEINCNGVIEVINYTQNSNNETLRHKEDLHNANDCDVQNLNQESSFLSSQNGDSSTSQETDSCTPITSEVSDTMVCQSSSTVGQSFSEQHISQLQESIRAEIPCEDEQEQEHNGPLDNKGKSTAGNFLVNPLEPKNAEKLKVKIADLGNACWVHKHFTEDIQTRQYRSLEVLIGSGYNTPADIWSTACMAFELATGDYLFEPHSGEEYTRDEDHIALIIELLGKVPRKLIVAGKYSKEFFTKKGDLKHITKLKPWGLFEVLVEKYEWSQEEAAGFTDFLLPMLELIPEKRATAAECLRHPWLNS
Description: as §1

[3] = biological target: T13, RSK4(Kin.Dom.2-C-terminal) (Homo sapiens, UniProt Q9UK32)
T13 construct: RSK4(Kin.Dom.2-C-terminal); purchased Eurofins DiscoverX (KINOMEscan)
Description: as §1

TNK1 = biological target: T14, TNK1 (Homo sapiens, UniProt Q13470)
T14 construct: purchased Eurofins DiscoverX (KINOMEscan)
Description: as §1

[4] = biological target: T15, RSK3(Kin.Dom.1-N-terminal) (Homo sapiens, UniProt Q15349)
T15 construct: RSK3(Kin.Dom.1-N-terminal); purchased Eurofins DiscoverX (KINOMEscan)
Description: as §1

ROS1 = biological target: T16, ROS1 (Homo sapiens, UniProt P08922)
T16 construct: purchased Eurofins DiscoverX (KINOMEscan)
Description: as §1

MLK3 = biological target: T17, MLK3 (Homo sapiens, UniProt Q16584)
T17 construct: purchased Eurofins DiscoverX (KINOMEscan)
Description: as §1

TNK2 = biological target: T18, TNK2 (Homo sapiens, UniProt Q07912)
T18 construct: purchased Eurofins DiscoverX (KINOMEscan)
Description: as §1

NEK9 = biological target: T19, NEK9 (Homo sapiens, UniProt Q8TD19)
T19 construct: purchased Eurofins DiscoverX (KINOMEscan)
Description: as §1

CDC2L1 = biological target: T20, CDC2L1 (Homo sapiens, UniProt P21127)
T20 construct: purchased Eurofins DiscoverX (KINOMEscan)
T20 sequence (P21127 whole entry): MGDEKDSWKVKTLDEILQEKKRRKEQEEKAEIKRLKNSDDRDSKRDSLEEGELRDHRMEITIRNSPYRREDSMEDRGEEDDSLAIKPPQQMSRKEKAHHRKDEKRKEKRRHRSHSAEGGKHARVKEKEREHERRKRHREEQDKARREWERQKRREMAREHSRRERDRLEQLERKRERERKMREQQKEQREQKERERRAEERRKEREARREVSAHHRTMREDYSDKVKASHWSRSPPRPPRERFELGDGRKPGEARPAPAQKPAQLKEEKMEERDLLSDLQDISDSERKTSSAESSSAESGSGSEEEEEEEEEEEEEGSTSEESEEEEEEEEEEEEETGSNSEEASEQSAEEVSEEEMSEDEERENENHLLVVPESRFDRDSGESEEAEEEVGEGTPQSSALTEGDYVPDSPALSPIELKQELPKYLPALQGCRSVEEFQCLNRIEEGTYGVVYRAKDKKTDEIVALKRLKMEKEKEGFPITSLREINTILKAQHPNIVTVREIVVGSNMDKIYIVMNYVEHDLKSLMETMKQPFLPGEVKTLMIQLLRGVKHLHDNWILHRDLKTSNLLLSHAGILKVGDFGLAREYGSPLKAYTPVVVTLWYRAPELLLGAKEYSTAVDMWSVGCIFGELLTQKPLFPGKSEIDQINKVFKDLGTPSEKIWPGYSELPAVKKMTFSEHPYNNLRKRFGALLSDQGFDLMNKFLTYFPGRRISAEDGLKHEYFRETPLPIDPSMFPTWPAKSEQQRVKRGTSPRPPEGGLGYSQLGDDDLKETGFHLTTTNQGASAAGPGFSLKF
Description: as §1

DCAMKL1 = biological target: T21, DCAMKL1 (Homo sapiens, UniProt O15075)
T21 construct: purchased Eurofins DiscoverX (KINOMEscan)
T21 sequence (O15075 whole entry): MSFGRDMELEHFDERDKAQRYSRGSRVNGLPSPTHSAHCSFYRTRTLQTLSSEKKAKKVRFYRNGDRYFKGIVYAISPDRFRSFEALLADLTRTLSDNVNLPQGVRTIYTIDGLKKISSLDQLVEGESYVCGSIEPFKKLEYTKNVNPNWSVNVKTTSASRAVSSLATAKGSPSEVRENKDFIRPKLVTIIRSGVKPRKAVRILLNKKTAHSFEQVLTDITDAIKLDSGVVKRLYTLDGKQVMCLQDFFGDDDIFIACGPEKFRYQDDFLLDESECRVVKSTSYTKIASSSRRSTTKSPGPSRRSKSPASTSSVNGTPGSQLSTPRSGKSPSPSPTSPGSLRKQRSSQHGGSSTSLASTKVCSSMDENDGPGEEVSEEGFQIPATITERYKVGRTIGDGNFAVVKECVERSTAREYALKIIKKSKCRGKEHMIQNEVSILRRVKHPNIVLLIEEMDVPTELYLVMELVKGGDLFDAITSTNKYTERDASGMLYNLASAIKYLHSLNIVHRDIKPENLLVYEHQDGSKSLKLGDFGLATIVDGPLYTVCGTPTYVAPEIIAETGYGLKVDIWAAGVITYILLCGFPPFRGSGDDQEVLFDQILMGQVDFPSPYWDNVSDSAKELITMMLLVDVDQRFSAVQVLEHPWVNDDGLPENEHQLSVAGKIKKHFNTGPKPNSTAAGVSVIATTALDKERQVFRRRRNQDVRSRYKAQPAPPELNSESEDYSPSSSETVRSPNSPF
Description: as §1

CAMK2B = biological target: T22, CAMK2B (Homo sapiens, UniProt Q13554)
T22 construct: purchased Eurofins DiscoverX (KINOMEscan)
Description: as §1

MET(Y1235D) = biological target: T23, MET(Y1235D) (Homo sapiens, UniProt P08581, Y1235D)
T23 construct: purchased Eurofins DiscoverX (KINOMEscan)
Description: as §1

TXK = biological target: T24, TXK (Homo sapiens, UniProt P42681)
T24 construct: purchased Eurofins DiscoverX (KINOMEscan)
T24 sequence (P42681 whole entry): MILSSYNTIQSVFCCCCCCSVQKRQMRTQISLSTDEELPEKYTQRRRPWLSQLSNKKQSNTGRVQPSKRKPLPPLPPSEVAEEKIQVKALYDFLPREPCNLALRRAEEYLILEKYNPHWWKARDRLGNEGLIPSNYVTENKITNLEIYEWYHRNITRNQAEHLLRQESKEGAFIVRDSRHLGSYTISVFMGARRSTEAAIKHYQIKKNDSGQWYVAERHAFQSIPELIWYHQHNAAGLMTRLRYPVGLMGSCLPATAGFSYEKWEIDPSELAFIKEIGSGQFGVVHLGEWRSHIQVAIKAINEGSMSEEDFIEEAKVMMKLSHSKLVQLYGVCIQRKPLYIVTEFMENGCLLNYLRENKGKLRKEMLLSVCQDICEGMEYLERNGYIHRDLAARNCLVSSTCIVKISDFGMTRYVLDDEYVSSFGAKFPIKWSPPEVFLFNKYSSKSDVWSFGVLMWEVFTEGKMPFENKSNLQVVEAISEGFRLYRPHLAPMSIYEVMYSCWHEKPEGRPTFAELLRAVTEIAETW
Description: as §1

[5] = biological target: T25, EGFR(L747-S752del, P753S) (Homo sapiens, UniProt P00533, DEL747-752/P753S)
T25 construct: purchased Eurofins DiscoverX (KINOMEscan)
Description: as §1

MST3 = biological target: T26, MST3 (Homo sapiens, UniProt Q9Y6E0)
T26 construct: purchased Eurofins DiscoverX (KINOMEscan)
Description: as §1

AURKC = biological target: T27, AURKC (Homo sapiens, UniProt Q9UQB9)
T27 construct: purchased Eurofins DiscoverX (KINOMEscan)
Description: as §1

PIK3CA(H1047L) = biological target: T28, PIK3CA(H1047L) (Homo sapiens, UniProt P42336, H1047L)
T28 construct: purchased Eurofins DiscoverX (KINOMEscan)
Description: as §1

RET(V804L) = biological target: T29, RET(V804L) (Homo sapiens, UniProt P07949, V804L)
T29 construct: purchased Eurofins DiscoverX (KINOMEscan)
T29 sequence (P07949 29-1114 V804L): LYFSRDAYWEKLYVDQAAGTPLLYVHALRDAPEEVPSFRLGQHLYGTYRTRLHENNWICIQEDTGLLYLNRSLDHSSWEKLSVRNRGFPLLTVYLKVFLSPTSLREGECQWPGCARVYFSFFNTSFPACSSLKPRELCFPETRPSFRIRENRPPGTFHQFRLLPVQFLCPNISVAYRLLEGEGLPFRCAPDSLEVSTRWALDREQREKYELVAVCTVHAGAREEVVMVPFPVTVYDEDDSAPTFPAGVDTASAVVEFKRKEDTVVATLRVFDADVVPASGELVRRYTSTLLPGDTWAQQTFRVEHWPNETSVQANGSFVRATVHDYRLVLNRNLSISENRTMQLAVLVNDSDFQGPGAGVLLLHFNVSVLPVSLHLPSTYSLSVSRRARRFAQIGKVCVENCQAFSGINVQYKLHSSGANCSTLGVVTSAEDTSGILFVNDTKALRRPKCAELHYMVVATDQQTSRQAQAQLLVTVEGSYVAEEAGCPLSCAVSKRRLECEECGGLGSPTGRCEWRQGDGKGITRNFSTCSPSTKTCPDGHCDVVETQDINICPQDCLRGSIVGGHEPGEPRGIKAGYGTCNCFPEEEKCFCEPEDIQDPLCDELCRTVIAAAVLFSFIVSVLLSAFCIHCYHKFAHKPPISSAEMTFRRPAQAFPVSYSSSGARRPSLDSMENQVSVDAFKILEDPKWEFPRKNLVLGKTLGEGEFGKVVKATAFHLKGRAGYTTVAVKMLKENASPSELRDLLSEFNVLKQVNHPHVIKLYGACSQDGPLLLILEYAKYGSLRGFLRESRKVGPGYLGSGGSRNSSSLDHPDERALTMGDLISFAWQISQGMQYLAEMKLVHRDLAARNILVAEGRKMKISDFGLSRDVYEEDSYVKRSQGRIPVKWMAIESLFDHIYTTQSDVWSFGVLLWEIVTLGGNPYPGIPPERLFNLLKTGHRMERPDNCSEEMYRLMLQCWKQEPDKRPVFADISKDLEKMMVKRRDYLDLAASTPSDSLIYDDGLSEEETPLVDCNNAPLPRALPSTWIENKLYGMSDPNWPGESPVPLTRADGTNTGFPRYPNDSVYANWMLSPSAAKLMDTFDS
Description: as §1

MET(M1250T) = biological target: T30, MET(M1250T) (Homo sapiens, UniProt P08581, M1250T)
T30 construct: purchased Eurofins DiscoverX (KINOMEscan)
Description: as §1

CDC2L2 = biological target: T31, CDC2L2 (Homo sapiens, UniProt Q9UQ88)
T31 construct: purchased Eurofins DiscoverX (KINOMEscan)
Description: as §1

DAPK1 = biological target: T32, DAPK1 (Homo sapiens, UniProt P53355)
T32 construct: purchased Eurofins DiscoverX (KINOMEscan)
Description: as §1

FLT4 = biological target: T33, FLT4 (Homo sapiens, UniProt P35916)
T33 construct: purchased Eurofins DiscoverX (KINOMEscan)
Description: as §1

HIPK1 = biological target: T34, HIPK1 (Homo sapiens, UniProt Q86Z02)
T34 construct: purchased Eurofins DiscoverX (KINOMEscan)
Description: as §1

KIT(A829P) = biological target: T35, KIT(A829P) (Homo sapiens, UniProt P10721, A829P)
T35 construct: purchased Eurofins DiscoverX (KINOMEscan)
Description: as §1

ITK = biological target: T36, ITK (Homo sapiens, UniProt Q08881)
T36 construct: purchased Eurofins DiscoverX (KINOMEscan)
T36 sequence (Q08881 whole entry): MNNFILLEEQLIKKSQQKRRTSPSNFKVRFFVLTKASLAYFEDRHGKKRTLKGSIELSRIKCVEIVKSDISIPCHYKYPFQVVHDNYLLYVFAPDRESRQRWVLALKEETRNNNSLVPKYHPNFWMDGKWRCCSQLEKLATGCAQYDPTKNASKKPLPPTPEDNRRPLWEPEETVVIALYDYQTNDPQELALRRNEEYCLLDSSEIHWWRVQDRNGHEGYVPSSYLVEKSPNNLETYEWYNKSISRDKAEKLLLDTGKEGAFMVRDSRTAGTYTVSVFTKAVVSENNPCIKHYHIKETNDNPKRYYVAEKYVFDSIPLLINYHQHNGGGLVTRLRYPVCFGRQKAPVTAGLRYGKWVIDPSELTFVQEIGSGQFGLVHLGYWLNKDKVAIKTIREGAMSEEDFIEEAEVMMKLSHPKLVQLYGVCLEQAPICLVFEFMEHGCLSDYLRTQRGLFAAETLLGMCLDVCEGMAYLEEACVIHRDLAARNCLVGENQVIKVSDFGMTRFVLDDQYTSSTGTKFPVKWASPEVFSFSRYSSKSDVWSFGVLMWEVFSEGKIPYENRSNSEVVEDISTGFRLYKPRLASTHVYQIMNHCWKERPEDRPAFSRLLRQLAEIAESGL
Description: as §1

EGFR(E746-A750del) = biological target: T37, EGFR(E746-A750del) (Homo sapiens, UniProt P00533, DEL746-750)
T37 construct: purchased Eurofins DiscoverX (KINOMEscan)
Description: as §1

TAOK2 = biological target: T38, TAOK2 (Homo sapiens, UniProt Q9UL54)
T38 construct: purchased Eurofins DiscoverX (KINOMEscan)
Description: as §1

PRKCH = biological target: T39, PRKCH (Homo sapiens, UniProt P24723)
T39 construct: purchased Eurofins DiscoverX (KINOMEscan)
Description: as §1

Compound: Brc1ccc2nccc(Nc3ccc4cn[nH]c4c3)c2c1 [Compound 35, 6-Bromo-N-(1H-indazol-6-yl)quinolin-4-amine]
- activity at 1 µM (EGFR(S752-I759del)): 89%
- activity at 1 µM (MEK3): 86%
- activity at 1 µM (IRAK4): 100%
- activity at 1 µM (WNK1): 100%
- activity at 1 µM [1]: 100%
- activity at 1 µM (PIK3CB): 94%
- activity at 1 µM (STK33): 100%
- activity at 1 µM (BRSK2): 100%
- activity at 1 µM [2]: 100%
- activity at 1 µM (FGFR4): 100%
- activity at 1 µM (ACVR2A): 100%
- activity at 1 µM (SRPK1): 100%
- activity at 1 µM [3]: 81%
- activity at 1 µM (TNK1): 69%
- activity at 1 µM [4]: 100%
- activity at 1 µM (ROS1): 94%
- activity at 1 µM (MLK3): 100%
- activity at 1 µM (TNK2): 95%
- activity at 1 µM (NEK9): 100%
- activity at 1 µM (CDC2L1): 100%
- activity at 1 µM (DCAMKL1): 99%
- activity at 1 µM (CAMK2B): 100%
- activity at 1 µM (MET(Y1235D)): 100%
- activity at 1 µM (TXK): 100%
- activity at 1 µM [5]: 66%
- activity at 1 µM (MST3): 100%
- activity at 1 µM (AURKC): 100%
- activity at 1 µM (PIK3CA(H1047L)): 87%
- activity at 1 µM (RET(V804L)): 97%
- activity at 1 µM (MET(M1250T)): 100%
- activity at 1 µM (CDC2L2): 70%
- activity at 1 µM (DAPK1): 100%
- activity at 1 µM (FLT4): 100%
- activity at 1 µM (HIPK1): 53%
- activity at 1 µM (KIT(A829P)): 100%
- activity at 1 µM (ITK): 100%
- activity at 1 µM (EGFR(E746-A750del)): 79%
- activity at 1 µM (TAOK2): 91%
- activity at 1 µM (PRKCH): 100%
